From US20250064844A1 (Emory University, priority 2020, published 2025)
Like-named read-outs stand apart in the source and are kept apart here.

What was measured:
[1] = system: HCoV; assay: organism not typed; type: cell-based; details: Vero C1008
[2] = system: SARS; assay: organism not typed; type: cell-based; details: Vero C1008
[3] = system: Vero cells; assay: Cell uptake and metabolism of EIDD-2801 in Vero cells; details: intracellular analyte; Vero cells incubated with 20 μM EIDD-2801, 1-24 hours
[4] = clinical; details: human, in vivo; for AUC(0-inf): AUCinf
[5] = cynomolgus monkey, in vivo, po
[6] = system: SARS-CoV2; assay: microbe, parasite or virus in culture; type: cell-based; details: Severe acute respiratory syndrome coronavirus 2, Vero
[7] = human, in vivo
[8] = system: Huh-7 cells; assay: Cell uptake and metabolism of EIDD-2801 in Huh-7 cells; details: intracellular analyte; Huh-7 cells incubated with 20 μM EIDD-2801, 1-24 hours
[9] = system: SARS; assay: organism not typed; type: cell-based; details: Vero C1008, SARS; Vero E6
[10] = system: HepG2 cells; assay: Cell uptake and metabolism of EIDD-2801 in HepG2 cells; details: intracellular analyte; HepG2 cells incubated with 20 μM EIDD-2801, 1-24 hours
[11] = system: CEM cells; assay: Cell uptake and metabolism of EIDD-2801 in CEM cells; details: intracellular analyte; CEM cells incubated with EIDD-2801 (40 μM solution prepared), 1-24 hours

SMILES: O=c1nc(NO)ccn1C1OC(CO)C(O)C1O (stereo not shown) [EIDD-1931, 1-(3,4-dihydroxy-5-(hydroxymethyl)tetrahydrofuran-2-yl)-4-(hydroxyamino)pyrimidin-2-one]
- EC50 [1]: < 400 nM
- EC90 [2]: < 800 nM
- AUC0−>t [3]: 228.6 pmol · h/M cells
- Cmax [3]: 13.5 pmol/M Cells
- AUC(0-inf) ([4]; 50 mg): 461 ng·h/mL
- AUC(0-t) ([4]; 50 mg, AUClast): 444 ng·h/mL
- AUC(0-t) ([4]; 50 mg, AUCt): 461 ng·h/mL
- Cmax ([4]; 50 mg): 223 ng/mL
- half-life ([4]; 50 mg, t1/2): 56.2 min
- Tmax ([4]; 50 mg, tmax): 1 h
- AUC(0-inf) ([4]; 100 mg): 855 ng·h/mL
- AUC(0-t) ([4]; 100 mg, AUClast): 835 ng·h/mL
- AUC(0-t) ([4]; 100 mg, AUCt): 854 ng·h/mL
- Cmax ([4]; 100 mg): 395 ng/mL
- half-life ([4]; 100 mg, t1/2): 55.1 min
- Tmax ([4]; 100 mg, tmax): 1.25 h
- AUC(0-inf) ([4]; 200 mg): 1660 ng·h/mL
- AUC(0-t) ([4]; 200 mg, AUClast): 1720 ng·h/mL
- AUC(0-t) ([4]; 200 mg, AUCt): 1730 ng·h/mL
- Cmax ([4]; 200 mg): 742 ng/mL
- half-life ([4]; 200 mg, t1/2): 65.4 min
- Tmax ([4]; 200 mg, tmax): 1.5 h
- AUC(0-inf) ([4]; 300 mg): 3090 ng·h/mL
- AUC(0-t) ([4]; 300 mg, AUClast): 2980 ng·h/mL
- AUC(0-t) ([4]; 300 mg, AUCt): 2960 ng·h/mL
- Cmax ([4]; 300 mg): 1100 ng/mL
- half-life ([4]; 300 mg, t1/2): 103 min
- Tmax ([4]; 300 mg, tmax): 1.5 h
- AUC(0-inf) ([4]; 400 mg): 3800 ng·h/mL
- AUC(0-t) ([4]; 400 mg, AUClast): 3730 ng·h/mL
- AUC(0-t) ([4]; 400 mg, AUCt): 3710 ng·h/mL
- Cmax ([4]; 400 mg): 1470 ng/mL
- half-life ([4]; 400 mg, t1/2): 72 min
- Tmax ([4]; 400 mg, tmax): 1.5 h
- AUC(0-inf) ([4]; 600 mg): 6680 ng·h/mL
- AUC(0-t) ([4]; 600 mg, AUClast): 7250 ng·h/mL
- AUC(0-t) ([4]; 600 mg, AUCt): 7110 ng·h/mL
- Cmax ([4]; 600 mg): 2240 ng/mL
- half-life ([4]; 600 mg, t1/2): 69.6 min
- Tmax ([4]; 600 mg, tmax): 1.75 h
- AUC(0-inf) ([4]; 800 mg): 8200 ng·h/mL
- AUC(0-t) ([4]; 800 mg, AUClast): 8450 ng·h/mL
- AUC(0-t) ([4]; 800 mg, AUCt): 8330 ng·h/mL
- Cmax ([4]; 800 mg): 2970 ng/mL
- Tmax ([4]; 800 mg, tmax): 1.5 h
- half-life ([4]; mean t1/2): 55.1 to 70.8 min
- Tmax ([4]; median tmax): 1 to 1.75 h
- AUC(0-inf) ([4]; po, 50 mg): 432 ng·h/mL
- AUC(0-t) ([4]; po, 50 mg, AUClast): 415 ng·h/mL
- Cmax ([4]; po, 50 mg): 223 ng/mL
- half-life ([4]; po, 50 mg, t1/2): 56.7 min
- Tmax ([4]; po, 50 mg, tmax (median)): 1 h
- AUC(0-inf) ([4]; po, 100 mg): 932 ng·h/mL
- AUC(0-t) ([4]; po, 100 mg, AUClast): 917 ng·h/mL
- Cmax ([4]; po, 100 mg): 454 ng/mL
- half-life ([4]; po, 100 mg, t1/2): 54.4 min
- Tmax ([4]; po, 100 mg, tmax (median)): 1 h
- AUC(0-inf) ([4]; po, 200 mg): 1830 ng·h/mL
- AUC(0-t) ([4]; po, 200 mg, AUClast): 1810 ng·h/mL
- Cmax ([4]; po, 200 mg): 926 ng/mL
- half-life ([4]; po, 200 mg, t1/2): 61.2 min
- Tmax ([4]; po, 200 mg, tmax (median)): 1 h
- AUC(0-inf) ([4]; po, 400 mg): 4010 ng·h/mL
- AUC(0-t) ([4]; po, 400 mg, AUClast): 4000 ng·h/mL
- Cmax ([4]; po, 400 mg): 1850 ng/mL
- half-life ([4]; po, 400 mg, t1/2): 61.8 min
- Tmax ([4]; po, 400 mg, tmax (median)): 1 h
- AUC(0-inf) ([4]; po, 600 mg): 6130 ng·h/mL
- AUC(0-t) ([4]; po, 600 mg, AUClast): 6120 ng·h/mL
- Cmax ([4]; po, 600 mg): 2720 ng/mL
- half-life ([4]; po, 600 mg, t1/2): 63.6 min
- Tmax ([4]; po, 600 mg, tmax (median)): 1 h
- AUC(0-inf) ([4]; po, 800 mg): 8740 ng·h/mL
- AUC(0-t) ([4]; po, 800 mg, AUClast): 8720 ng·h/mL
- Cmax ([4]; po, 800 mg): 3640 ng/mL
- half-life ([4]; po, 800 mg, t1/2): 77.4 min
- Tmax ([4]; po, 800 mg, tmax (median)): 1 h
- AUC(0-inf) ([4]; po, 1200 mg): 13800 ng·h/mL
- AUC(0-t) ([4]; po, 1200 mg, AUClast): 13800 ng·h/mL
- Cmax ([4]; po, 1200 mg): 4500 ng/mL
- half-life ([4]; po, 1200 mg, t1/2): 109 min
- Tmax ([4]; po, 1200 mg, tmax (median)): 1.75 h
- AUC(0-inf) ([4]; po, 1600 mg): 20700 ng·h/mL
- AUC(0-t) ([4]; po, 1600 mg, AUClast): 20700 ng·h/mL
- Cmax ([4]; po, 1600 mg): 6350 ng/mL
- half-life ([4]; po, 1600 mg, t1/2): 275 min
- Tmax ([4]; po, 1600 mg, tmax (median)): 1.5 h
- half-life ([4]; po, geometric mean terminal elimination half-lives (t1/2)): 54.6 to 77.4 min
- Tmax ([4]; po, median tmax): 1 h
- bioavailability [5]: low bioavailability
- EC50 [6]: 300 nM
- Slope (90% Confidence Interval) of power model, AUCinf [7]: 1.07 (1.02, 1.13)
- Slope (90% Confidence Interval) of power model, AUClast [7]: 1.09 (1.03, 1.15)
- Slope (90% Confidence Interval) of power model, Cmax [7]: 1.01 (0.927, 1.08)
- Slope of power model, AUCinf [7]: 1.10
- Slope of power model, AUClast [7]: 1.11
- Slope of power model, AUCt [7]: 1.08
- delay of median tmax, capsule vs solution formulation [7]: up to 0.75 hours
- dose excreted in urine as EIDD-1931 [7]: 0.854-3.61%
- geometric mean accumulation ratio based on AUCt [7]: 0.938-1.16
- geometric mean accumulation ratio based on Cmax [7]: 0.843-1.10
- geometric mean ratio of AUCinf, capsule (multiple-dose cohorts Day 1) vs solution (single-dose cohorts) [7]: 0.91-1.09
- geometric mean ratio of Cmax, capsule vs solution formulation [7]: 0.76-1.00
- RAcmax (accumulation ratio) ([7]; 50 mg): 0.843
- RAcmax (accumulation ratio) ([7]; 100 mg): 1.10
- FEAUC/inf (ratio of AUCinf fed:fasted) ([7]; 200 mg): 0.955
- FECmax (ratio of Cmax fed:fasted) ([7]; 200 mg): 0.644
- RAcmax (accumulation ratio) ([7]; 200 mg): 0.969
- mean Cmax lower in the fed state compared to the fasted state ([7]; 200 mg): approximately 36%
- RAcmax (accumulation ratio) ([7]; 300 mg): 0.861
- RAcmax (accumulation ratio) ([7]; 400 mg): 0.962
- RAcmax (accumulation ratio) ([7]; 600 mg): 1.04
- RAcmax (accumulation ratio) ([7]; 800 mg): 1.09
- t1/2 ([7]; 800 mg): 7.08¶ h
- AUC0−>t [8]: 449.2 pmol · h/M cells
- Cmax [8]: 29.0 pmol/M Cells
- EC50 [9]: < 800 nM
- AUC0−>t [10]: 249.8 pmol · h/M cells
- Cmax [10]: 13.4 pmol/M Cells
- AUC0−>t [11]: 5.8 pmol · h/M cells
- Cmax [11]: 0.3 pmol/M Cells
